Drawing on a melting point compilation (Tetko et al.; mined from patent text by program, amines drawn as free bases though some values may be those of a salt), this text covers melting point for 87 compounds.

Each structure is given as a SMILES string.

As a reminder, the melting point is the temperature of the solid-liquid transition. In turn, `CCCCCCC(C)(C)c1ccc([C@@H]2CCC[C@H](O)C2)c(O)c1` (relative stereo) yielded a melting point of 109 to 110 °C.

In turn, `Cn1ccc2c(N3CCN(CC4CCc5ccccc5N4C(=O)C4CCCCC4)CC3)cccc21` (configuration not stated) yielded a melting point of 66 to 70 °C. As for `CC(C)=CCn1c(-c2c(F)cccc2F)nc2c(C)cccc21`, the figure is 78 to 79 °C; as for `COc1cc(-c2ccc(C#N)o2)ccc1Br`, 76 to 77 °C. Compound `Cc1c(C2CCCC2)c(=O)oc2cc(OCc3nnn[nH]3)cc(OCc3nnn[nH]3)c12` gave a melting point of 248 to 252 °C. The result for `CCCSc1sc(C(N)=O)c2c1-c1nn(C)cc1CC2` reads 208 to 209 °C; that for `CCCc1nn(C)c(C(N)=O)c1NC(=O)c1cc([N+](=O)[O-])cnc1OCC`, 251 to 253 °C; that for `CCc1cc(NC(=O)c2ccc(OC)c(OC)c2)ccc1C(C)(C)CNC(C)=O`, 203 to 206 °C.

On to `COc1cc(Cl)ccc1-c1nc2cc3c(cc2[nH]1)C(C)(C)CC(=O)N3`, for which the melting point was in the range of 300 to 303 °C.

On to `CC=COC(=O)C1(S(=O)(=O)C(C)(C)C)C=CC=CC1C[C@H](N)C(=O)O` (some centres not stated), for which the melting point is 88 to 89.5 °C.

In the case of `COc1ccc(-c2n[nH]c(=O)cc2-c2ccc(OC)c(F)c2)cc1`, the melting point was found to be 213 °C. In turn, `CS(=O)c1ccc(Oc2ccc(Cl)c(Cl)c2)nc1C(N)=O` (configuration not stated) came in with a melting point of 185 to 187 °C. With `COCc1c[nH]c(-c2ccc(O)cc2)n1`, the melting point was 191 to 192 °C. The result for `COc1cc2c3ccc(OC)c(OC)c3n(S(=O)(=O)c3cc(Cl)ccc3Cl)c2cc1OC` reads 221 to 224 °C. The compound `CC1(C)CCOC1=Cn1cncn1` gave a melting point of 47 °C. The result for `Cc1ccc(OCc2ccc(OCc3nc(-c4ccccc4)oc3C)cc2)c(CC(=O)O)c1` reads 115 to 116 °C; that for `Nc1sc2c(c1C(=O)c1ccccc1)CCSC2`, 92 to 95 °C. The compound `CS(=O)(=O)c1ccc(-c2cnn(-c3ccc(F)c(F)c3)c(=O)c2Oc2ccc(Cl)cc2)cc1` returned a melting point of 192 to 194 °C. `N#Cc1cc(C2=Nc3ccc(C4CC4)cc3NC(=O)C2)ccn1` came in with a melting point of 227 to 230 °C. Take `Nc1noc(-c2cc3c(Oc4ccc(Cl)cc4)cncc3s2)n1`: the melting point was in the range of 217 to 219 °C. As for `COC(=O)c1c(Cl)cc(Cl)cc1NC(=O)CSc1ccc(NC(=O)c2ccco2)cc1`, the figure is 133 to 135 °C.

Take `CC1(C)CCCc2cc3c(cc21)C(C)(C)CCC3(C)C`: the melting point was 94 to 95 °C. Turning to `CN(C)C(=O)c1c(CNS(=O)(=O)c2cccc(Cl)c2)nn(-c2ccc(Cl)cc2Cl)c1-c1ccc(Cl)cc1`, the melting point was 178 °C.

The compound `Cc1ccc(C=C(C=O)C(C=O)=Cc2ccc(C)cc2)cc1` came in with a melting point of 177 to 178 °C. As to `Cn1cc(-c2cccc(C(F)(F)F)c2)c(=O)c(-c2ccccc2Br)c1`, the melting point is 197 to 199 °C. For `N#CC(C#N)=Cc1ccc(C=O)cc1`, the melting point was determined as 142 °C. For the compound `Oc1cc2c(cc1C=CCc1ccccc1)OCO2`, the melting point was 83 °C. Compound `CCc1c(Cc2ccccc2)[nH]c(=O)[nH]c1=O` registered a melting point of 73 to 74 °C.

On to `CCOC(=O)CN(C(=O)CC)c1c(SC(F)(F)F)c(C)nn1-c1c(Cl)cc(C(F)(F)F)cc1Cl`, for which the melting point is 73 to 74 °C. With `COCC1CCCN1Cc1ccc2cc(NC(=O)c3ccc(-c4ccc(Cl)cc4)cc3)ccc2n1` (configuration not stated), the melting point was 172 to 174 °C. In the case of `COC(=O)C1Oc2ccc(Cl)cc2C(c2ccccc2)(C2CCCCC2)O1` (configuration not stated), the melting point is 142 °C. The result for `O=C(CC(=O)C(F)(F)F)Nc1cc(-c2ccccc2Br)n[nH]1` reads 128 to 131 °C. For `CCCCC#CCCOc1c(I)cc(I)cc1I`, the melting point is 45 to 49 °C. The result for `CCS(=O)(=O)Nc1cc(Cc2c[nH]cn2)ccc1Cl` reads 159 to 160 °C. The compound `CC(C)(C)OC(=O)CS` showed a melting point of 72 °C. The result for `CC#CC(C)n1nnc2cc3c(=O)n(C(C)Cn4ncnn4)nnc3cc2c1=O` (configuration not stated) reads 72 to 74 °C; that for `O=[N+]([O-])c1ccc(Cn2cncn2)cc1`, 98 to 100 °C; that for `O=C(O)C1CCc2c([nH]c3ccc(Cl)cc23)C1` (configuration not stated), 196 to 197 °C. `Cn1c(CC(=O)O)ccc1C(=O)c1ccc([N+](=O)[O-])cc1` came in with a melting point of 192 to 195 °C. Take `Cc1oc(-c2ccc3ccccc3c2)nc1CCc1ccc(CCCC2OC(=O)NC2=O)cc1` (configuration not stated): the melting point was 168 to 169 °C. Regarding `COCc1c(C(=O)c2ccccc2)ncc2[nH]c3cccc(Cc4ccccc4Cl)c3c12`, the melting point lay within 147 to 148 °C. As to `CCCCCCCC(=O)c1ccc(OC(C)=O)c(C(=O)O)c1`, the melting point stood at 130 °C. In turn, `COC(=O)c1cc(C(=O)NN)c2cc(Cc3ccc(F)cc3)cnc2c1O` yielded a melting point of 156 to 157 °C. The compound `Cc1[nH]c(=O)[nH]c1C(=O)C1CC1` came in with a melting point of 272 to 273 °C. `N#CCOc1cc(O)ccc1-c1nc2nccnc2[nH]1` yielded a melting point of 232 to 233 °C. On to `COc1ccc(N(C(C)=O)C2=NN(c3ccc([N+](=O)[O-])cc3)C(=O)C2Br)cc1` (configuration not stated), for which the melting point fell in the range of 163 to 164 °C.

Compound `OC(CCN1CCC(c2ccc(F)cc2)CC1)c1ccc(Cc2ccc(Cl)cc2)cc1` (configuration not stated) yielded a melting point of 94 to 95 °C. Take `COC(=O)c1c(NC(=O)C(C)(C)C)c(Cl)cc(OC)c1OC`: the melting point lay in the range of 100 to 102 °C. As for `O=c1cc(-c2ccncc2)nc2n1CCC(c1ccncc1)N2CC(O)c1cccc(Br)c1` (configuration not stated), the figure is 190 to 192 °C; as for `NC(=O)c1cccc(-c2ccc(F)c3cc(Cc4cccc(C(F)(F)F)c4)sc23)c1`, 139 to 140 °C; as for `CSc1ccc(-c2nn(Cc3ccc(Cl)cc3Cl)c(=S)cc2-c2ccc(F)cc2)cc1`, 154 °C. The result for `COP(=O)(OC)C(O)c1ccccc1` (configuration not stated) reads 85 to 86 °C; that for `CCc1nc(C2CC2)c(C(=O)O)n1Cc1ccc2oc(-c3ccccc3-c3nnn[nH]3)c(Br)c2c1`, 198 °C. `COc1cc2nc(N3CCN(C(=O)c4nnc(SC)o4)CC3)nc(N)c2cc1OC`: the melting point was 228 to 230 °C. The result for `N#Cc1ccc(S(=O)(=O)N2CCn3c(c(C(N)=O)c(Cl)c3-c3ccccc3)C2)cc1` reads 205 to 206 °C; that for `Cc1cccc(NC(=O)Nc2c(-c3ccccc3Cl)c3cc(C)c(C)cc3n(C)c2=O)c1`, 210 to 211 °C; that for `CCCCCCCCCCCCCCc1ccc(OCC(O)CO)c(CC)c1` (configuration not stated), 55 to 56 °C.

Take `Cc1ccc(S(=O)(=O)N2CCc3ccccc3C(Oc3ccccc3)C2)cc1` (configuration not stated): the melting point lay within 155 to 156 °C. Take `O=C1C(CC23CC(c4ccccc42)c2ccccc23)OCCN1Cc1ccccc1` (configuration not stated): the melting point was in the range of 155 to 156 °C. As for `COc1cc2nc(C)nc(Cl)c2cc1OCCCN1CCOCC1`, the figure is 116 to 118 °C; as for `CC(O)C(C)(C)NC(N)=S` (configuration not stated), 148 to 151 °C. For `CC(C)c1nc(CC(=O)N[C@H](C(=O)N[C@@H](Cc2ccccc2)C[C@H](O)[C@H](Cc2ccccc2)NC(=O)OCc2cncs2)C(C)C)cs1`, the melting point was 153 to 155 °C.

For the compound `O=S(=O)(c1ccc(F)cc1)c1cncc(OC2SCC(O)C(O)C2O)c1` (configuration not stated), the melting point is 93 to 96 °C.

Compound `CCCC(=O)Nc1ccc(-c2cc(C(C)(C)C)c(O)c(C(C)(C)C)c2)cc1` had a melting point of 180 to 181 °C. On to `CC(C(=O)OC(C)(C)C)c1ccc(N2Cc3ccc(Br)cc3C2=O)cc1` (configuration not stated), for which the melting point was 164 to 165 °C. Compound `O=S(=O)(CC(O)(CCl)c1ccccc1)c1ccccc1` (configuration not stated) displayed a melting point of 110 °C.

In turn, `CCn1c(=O)n(CC(C)(C)O)c(=O)c2[nH]cnc21` yielded a melting point of 217 to 219 °C. The result for `O=C1Nc2ccccc2CCC1(Cl)Cl` reads 185 to 187 °C. `Nc1cc(-n2cc(C(=O)O)c(=O)c3cc(F)c(NCCO)c(Cl)c32)c(F)cc1F` gave a melting point of 215 to 219 °C. In turn, `COc1cc(C=O)ccc1OCC(=O)OC(C)(C)C` displayed a melting point of 86.8 to 90 °C. The result for `CC1CC(c2cccc(Cl)c2)=NNC1=O` (configuration not stated) reads 150 to 151 °C; that for `COc1cc2cc(CO)c(CO)c(-c3ccnc(N4CCC(O)c5ccccc54)c3)c2cc1OC` (configuration not stated), 90 to 94 °C. The result for `CCC1CC(=O)N(Cc2ccc(NC(=O)C(C)C)cc2)N=C1c1ccc(OC)c(OC)c1` (configuration not stated) reads 144 °C; that for `CC(=NO)c1ccc(N)c(S(N)(=O)=O)c1`, 230 to 233 °C.

Turning to `CS(=O)CC(=NC1CCCCC1)c1cc2ccccc2cc1O` (configuration not stated), the melting point is 132 to 136 °C. The result for `Oc1ccc2c(c1)C13CCN(CC4CCC4)C(C2)C1CCOC3` (configuration not stated) reads 197 to 198 °C; that for `CC(=O)OC1CSC(Oc2cncc(-c3ccncc3)c2)C(OC(C)=O)C1OC(C)=O` (configuration not stated), 138 °C; that for `COC(=O)COc1c(I)cc(-c2c3ccccc3cc3sc4ccccc4c23)cc1I`, 203 to 205 °C. `CNC(=O)N(O)C(C)C#Cc1ccc(Br)cc1` (configuration not stated) came in with a melting point of 145 to 146 °C.

With `CC[C@H](C)[C@H](NC(=O)OC(C)(C)C)C(=O)N[C@H](C(=O)N[C@@H](CC1CCCCC1)[C@@H](O)[C@@H](O)CC(C)C)[C@@H](C)CC`, the melting point is 178 to 179 °C.

For the compound `O=C1c2c(-c3ccccc3)noc2CCC1CCCN1CCC(O)(c2ccc(Cl)cc2)CC1` (configuration not stated), the melting point is 147 to 148 °C. As for `Oc1ccccc1-c1cc(-c2ccc(F)c(F)c2)cc(-c2ccc(Cl)cc2)n1`, the melting point was in the range of 146 to 148 °C.

`Nc1cc(Oc2ccc(CCO)cc2)c(N)c2c1C(=O)c1ccccc1C2=O` showed a melting point of 224 to 227 °C. `CCCCCCC1(C)Nc2ccccc2-c2c([N+](=O)[O-])cnn21` (configuration not stated) registered a melting point of 86 to 88 °C. With `COc1cccc(-c2cn(N=Cc3ccccc3)c(N)n2)c1`, the melting point is 170 to 171 °C. `CN(C(=O)c1ccc(Cn2cnc3cnccc32)cc1)C1CCCCC1` gave a melting point of 121 to 123 °C. `Cc1ccc(C(=O)/C(=C\c2ccccc2)C(=O)OC(C)(C)C)c(O)c1` gave a melting point of 92 to 95 °C.
